Reference: patent US20220346377A1, “NOVEL COMPOSITIONS” (DSM IP ASSETS B.V., priority 2019, published 2022)

Tests used:
Assay type in all cases: cell-based
Aspergillus brasiliensis = test: Antimicrobial efficacy in analogy to challenge test (NF EN ISO11930), Aspergillus brasiliensis; settings: 0.3 wt.-% DBO
Description: (§1) The antimicrobial efficacy was assessed in analogy to the regulatory challenge test method (NF EN ISO11930). Thus, mixtures of the respective active(s) with physiological serum with 0.85 wt.-% NaCl in the concentrations as outlined below are prepared under sterile conditions. Controls were also prepared under sterile conditions. The control as well as the mixtures were then deposed in 96-deep well plates (1.6 ml/well). The wells were contaminated with the respective bacterial or the fungal strains at 2.5*10^5 to 5.6*10^5 cfu/ml for the bacteria and 1*10^4 to 2.5*10^4 cfu/ml for the fungi to obtain the initial contamination as outlined below. After the contamination, each well was thoroughly mixed to ensure a homogeneous distribution of microbes. Then each plate was incubated at 22° C. for 24 h. The counting of the (remaining) population is carried out 24 h after contamination. Then, the average log reduction is calculated [−log 10{(value inoculum)/(value sample)}] which is represented in tables 1-5.

Candida albicans = test: Antimicrobial efficacy in analogy to challenge test (NF EN ISO11930), Candida albicans
Description: as §1, with “The wells were contaminated with the respective bacterial or the fungal strains at 2.5*10^5 to 5.6*10^5 cfu/ml for the bacteria and 1*10^4 to 2.5*10^4 cfu/ml for the fungi to obtain the initial contamination as outlined below.” left out

Staphylococcus aureus = test: Antimicrobial efficacy in analogy to challenge test (NF EN ISO11930), Staphylococcus aureus
Description: as §1

Escherichia coli = test: Antimicrobial efficacy in analogy to challenge test (NF EN ISO11930), Escherichia coli; settings: 0.2 wt.-% Sodium Benzoate
Description: as §1

With `c1ccc2oc(-c3ccc(-c4nc5ccccc5o4)cc3)nc2c1` [DBO, 1,4-di(benzoxazol-2′-yl)benzene] the Log reduction (Aspergillus brasiliensis; 24 h after contamination) was −2.05, the “colony count 24 h” value (Aspergillus brasiliensis; inoculum 45000 cfu/ml, 22° C., 24 h) was 400 cfu/ml and the Log reduction (Candida albicans; 0.3 wt.-% DBO, 24 h after contamination) was −0.51. For the same molecule, the “colony count 24 h” value (Candida albicans; 0.3 wt.-% DBO, inoculum 32000 cfu/ml, 22° C., 24 h, physiological serum 0.85 wt.-% NaCl) was 10000 cfu/ml and the “synergistic effect on antimicrobial activity” value (Staphylococcus aureus; DBO with p-Hydroxyacetophenone, conclusion from Table 3) was “synergistically enhances the antimicrobial activity of p-Hydroxyacetophenone”.

In the case of `CC(=O)c1ccc(O)cc1` [HAP, p-Hydroxyacetophenone], the “colony count 24 h” value (Staphylococcus aureus; 0.3 wt.-% HAP, inoculum 550000 cfu/ml, 24 h) is reported as 70000 cfu/ml.

In the case of `OCCCO` [PDO, 1,3-propanediol], the Log reduction (Candida albicans; 1.0 wt.-% PDO, 24 h) is reported as −0.24 and the “colony count 24 h” value (Candida albicans; 1.0 wt.-% PDO, inoculum 70000 cfu/ml, 24 h) is reported as 40000 cfu/ml.

For `O=C([O-])c1ccccc1.[Na+]` [Sodium Benzoate, sodium benzoate], the “colony count 24 h” value (Escherichia coli; inoculum 400000 cfu/ml) was 1000000 cfu/ml and the Log reduction (Escherichia coli; 24 h) was “+0.40”.
